Type in all cases: cell-based
In experiment [1] the test system is Human ES cells (KhES-1 strain). As to the kind of experiment: Addition conditions of Wnt signal transduction pathway inhibiting substance in production of cell mass containing pituitary tissue; bright field observation. As to conditions: day 28; for nonneural epithelial structure on surface of cell mass: IWP-2 2 μM, KY02111 5 μM, C-59 500 nM, LGK974 5 μM, XAV939 1 μM, IWR1-endo 1 μM added at start, with SB-431542, BMP4, SAG; for size and condition of cell mass: 2 μM IWP-2, 5 μM KY02111, 1 μM XAV939, 1 μM IWR1e. Here is the method:
(§1) Human ES cells (KhES-1 strain) were cultured under feeder-free conditions according to the method described in Scientific Reports, 4, 3594 (2014). As the feeder-free medium, StemFit medium was used and, as the feeder-free scaffold, Laminin 511-E8 was used.
(§2) Specific maintenance culturing operation was performed in the same manner as in Example 1.
Thereafter, suspension culturing in a 96 well plate was performed under conditions similar to those in Example 1 except that the kind or the presence or absence of the Wnt signal transduction pathway inhibiting substance to be added at the start of suspension culturing was changed. As the Wnt signal transduction pathway inhibiting substances, IWP-2, C-59 (manufactured by Cayman Chemicals, 500 nM), LGK974 (manufactured by Cayman Chemicals, 5 μM) which are PORCN inhibitors; XAV939 (manufactured by Cayman Chemicals, 1 μM), IWR1-endo (manufactured by Merck Millipore, 1 μM) which are TANK inhibitors, and KY02111 (manufactured by Cayman Chemicals, 5 μM) whose action mechanism has not been reported were added at the start of the suspension culturing, and the condition with the addition of DMSO alone as a control of no addition of a Wnt signal transduction pathway inhibiting substance was performed.
A serum-free medium not containing Y27632 and containing each Wnt signal transduction pathway inhibiting substance, SB-431542, BMP4, and SAG was added at 100 μl per well on day 2 from the start of suspension culturing. BMP4 was added at 3 nM to the medium so that the final concentration in the well would be 1.5 nM, and SAG was added at 4 μM to the medium so that the final concentration in the well would be 2 μM.
A half amount of the medium was changed with a serum-free medium not containing Y27632 or BMP4 and containing each Wnt signal transduction pathway inhibiting substance, SB-431542 and SAG on days 6, 10, 13, 17, 21, 24 from the start of suspension culturing. In addition to the above-mentioned conditions, the condition in which neither SB431542 nor a Wnt signal transduction pathway inhibiting substance is added during suspension culturing was also performed.
Bright field observation was performed using an inverted microscope (manufactured by KEYENCE CORPORATION, BIOREVO) on day 28 from the start of suspension culturing (FIGS. 7A-H).

Experiment [2] relates to Human iPS cells (HC-6 #10 strain). As to the kind of experiment: Cell mass from human iPS cells using Wnt signal transduction pathway activating substance (CHIR99021) and inhibiting substance in combination; bright field observation and immunostaining. On the procedure:
Human iPS cells (HC-6 #10 strain, obtained from RIKEN) were cultured under feeder-free conditions according to the method described in Scientific Reports, 4, 3594 (2014). As the feeder-free medium, StemFit medium was used and, as the feeder-free scaffold, Laminin 511-E8 was used. Specific maintenance culturing operation was performed in the same manner as in Example 1. The thus-prepared subconfluent human iPS cells were washed with PBS, subjected to an enzyme treatment using Accumax, a serum-free medium for differentiation induction was added, and the cells were scraped from the surface of the culture dish by using a cell scraper and dispersed into single cells by pipetting. Thereafter, the aforementioned human ES cells dispersed into single cells were suspended in 100 μl of a serum-free medium at 9×10^3 cells per well of a non-cell-adhesive 96-well culture plate (PrimeSurface […]-bottom plate, manufactured by SUMITOMO BAKELITE), and cultured in suspension under the conditions of 37° C., 5% CO2. As the serum-free medium ([…]) therefor, a serum-free medium which is a 1:1 mixture of F-12+Glutamax medium (manufactured by Thermo Fisher Scientific) and IMDM+Glutamax medium (manufactured by Thermo Fisher Scientific) supplemented with 5% Knockout Serum Replacement (manufactured by Thermo Fisher Scientific), 450 μM 1-monothioglycerol (manufactured by Wako Pure Chemical Industries, Ltd.), 1× Chemically defined lipid concentrate (manufactured by Thermo Fisher Scientific), 50 unit/ml penicillin-50 μg/ml streptomycin (manufactured by Nacalai Tesque) was used. At the time of the start of suspension culturing (day 0 from the start of suspension culturing, start of step 1), Y27632 (final concentration 20 μM), SB-431542 (TGFβ signal transduction pathway inhibiting substance, manufactured by Wako Pure Chemical Industries, Ltd., 1 μM), and IWP-2 (Wnt signal transduction pathway inhibiting substance, manufactured by Tocris Bioscience, 2 μM) were added to the aforementioned serum-free medium. In addition, conditions in which CHIR99021 (manufactured by Cayman Chemical) is added at 300 nM, 1 μM, 3 μM as a Wnt signal transduction pathway activating substance, and conditions in which DMSO alone is added as a control of no addition were set, totaling in 4 conditions. In the present Example, CHIR99021 is sometimes referred to as CHIR. A serum-free medium not containing Y27632 and containing SB-431542, IWP-2, BMP4 (BMP signal transduction pathway activating substance) and CHIR99021 under each condition set was added at 100 μl per well on day 2 from the start of suspension culturing. BMP4 was added at 3 nM to the medium so that the final concentration in the well would be 1.5 nM. As a method for inducing cell mass containing nonneural epithelium and placode, a half amount of the medium was changed with a serum-free medium not containing Y27632 or BMP4, and containing IWP-2, SB-431542, K02288 (BMP signal transduction pathway inhibiting substance, manufactured by AdooQ Bioscience), FGF2-TS (FGF signal transduction pathway activating substance, manufactured by HumanZyme) and Heparin Sodium (manufactured by FUJIFILM Wako Pure Chemical Corporation) on day 3 from the start of suspension culturing. K02288, FGF2, and Heparin Sodium were respectively added at 2 μM, 40 ng/ml, and 20 μg/ml to the medium so that the final concentration in the well would be respectively 1 μM, 20 ng/ml, and 10 μg/ml. A half amount of the medium was changed on day 6 and day 10 from the start of suspension culturing. On day 13 from the start of suspension culturing, bright field observation was performed under an inverted microscope (FIGS. 11A-D). […] The above-mentioned cell masses on day 13 of the culturing were fixed by a method similar to that in Example 1 to prepare cryosections. […]

The subject of experiment [3] is Human ES cells (KhES-1 strain). As to the kind of experiment: TGFβ signal transduction pathway inhibitory conditions in production of cell mass containing pituitary tissue. Particulars: IWP-2 added, no TGFβ signal transduction pathway inhibiting substance; day 28. On the procedure: as §1, §2
Thereafter, suspension culturing in a 96 well plate was performed under conditions similar to those in Example 1 except that the concentration and kind of the TGFβ signal transduction pathway inhibiting substance to be added at the start of the suspension culturing are changed. As the TGFβ signal transduction pathway inhibiting substance therefor, SB431542 (1 or 10 μM), A 83-01 (manufactured by Cayman Chemicals, 1 or 10 μM), and RepSox (manufactured by Cayman Chemicals, 1 μM) were added at respective concentration conditions.
Thereafter, a serum-free medium not containing Y27632 and containing IWP-2, each TGFβ signal transduction pathway inhibiting substance, BMP4, and SAG was added at 100 μl per well on day 2 from the start of suspension culturing. BMP4 was added at 3 nM to the medium so that the final concentration in the well would be 1.5 nM, and SAG was added at 4 μM to the medium so that the final concentration in the well would be 2 μM.
A half amount of the medium was changed with a serum-free medium not containing Y27632 or BMP4 and containing IWP-2, each TGFβ signal transduction pathway inhibiting substance, and SAG on days 6, 10, 13, 17, 21, 24 from the start of suspension culturing. In addition to the above-mentioned conditions, the condition in which neither a TGFβ signal transduction pathway inhibiting substance nor IWP-2 is added during suspension culturing, and the condition in which IWP-2 is added and a TGFβ signal transduction pathway inhibiting substance is not added during suspension culturing were also performed.

Experiment [4] has as its system Human ES cells (KhES-1 strain). The experiment can be described thus: Effect of compound treatment before differentiation induction in production of cell mass containing pituitary tissue; bright field observation. As to conditions: pre-treatment with 5 μM SB-431542 alone; day 28. On the procedure: Human ES cells (KhES-1 strain) were cultured under feeder-free conditions according to the method described in Scientific Reports, 4, 3594 (2014). As the feeder-free medium, StemFit medium was used and, as the feeder-free scaffold, Laminin 511-E8 was used. Specific maintenance culturing operation was performed in the same manner as in Example 1. As a pre-treatment for differentiation induction of the cultured cells, cells under 4 conditions were maintenance cultured under conditions in which, condition in which nothing is simultaneously added with medium change with […] medium (Control), conditions in which 300 nM SAG alone is added (+300 nM SAG), conditions in which 5 μM SB-431542 alone is added (+5 μM SB-431542), and conditions in which SAG and SB431542 are simultaneously added (+SAG/SB) at 6 days after seeding. The next day of the above-mentioned treatment, human ES cells under 4 conditions that reached subconfluence were each subjected to differentiation induction by suspension culturing into a cell mass containing pituitary tissue according to the method described in Example 1. Bright field observation was performed under an inverted microscope on day 28 from the start of suspension culturing (FIGS. 6A-D).

[5] abbreviates: 300 nM CHIR vs no addition, day 13.

Data on 8 compounds can be found in patent US12485147B2, “Method for producing cell mass including pituitary tissue, and cell mass thereof” (SUMITOMO CHEMICAL COMPANY, LIMITED, priority 2017, dated 2025).

Regarding `Cc1cc(-c2ccc(CC(=O)Nc3ccc(-c4cccnc4)cc3)cc2)ccn1` [C59], in experiment [1], the “nonneural epithelial structure on surface of cell mass” value (from here on “nonneural epithelial structure”) is listed as “cell masses having a nonneural epithelial structure on the surface were formed”.
Consider `Cc1c[nH]c(-c2cnc(NCCNc3ccc(C#N)cn3)nc2-c2ccc(Cl)cc2Cl)n1` [CHIR99021], for which, in experiment [2] (setting [5]), the “neural tissue in the inside” value was “survival of neural tissue in the inside and epithelial formation were promoted”; the “size of cell mass” value is on record as “larger cell masses were formed”. Also, the “marker-positive tissue formation (immunostaining)” value in experiment [2] (300 nM, 1 μM CHIR (also no addition), day 13) is listed as “formation of Dlx5, Six1, E-Cadherin, N-Cadherin positive nonneural epithelium or placode precursor tissue”. In experiment [2] (1 μM CHIR, day 13), the “nonneural epithelium thickening and placode formation” value is “thickening of nonneural epithelium on the outside and formation of placode were suppressed”. In addition, in experiment [2] (3 μM CHIR99021, day 13), the “formation of nonneural epithelial tissue on surface (bright field)” value is “formation of nonneural epithelial tissue on the surface of cell mass is inhibited”. The “formation of nonneural epithelium (immunostaining)” value in experiment [2] (3 μM CHIR, day 13) is given as “Formation of nonneural epithelium was not observed”. In experiment [2] (CHIR99021 300 nM, 1 μM, 3 μM in presence of IWP-2, day 13), the “growth of cell masses (bright field)” value is given as “cell masses grow in a concentration-dependent manner”. Also, the “level effective for growth of whole cell masses, survival of neural tissue in the inside and promotion of epithelial formation” value in experiment [2] (in the presence of IWP-2) is recorded as “not more than 3 μM”.
With `Cc1ccc2nc(NC(=O)CSc3nc4c(c(=O)n3-c3ccccc3)SCC4)sc2c1` [IWP-2], in experiment [1], the “size and condition of cell mass” value was “large cell masses in good condition were formed”; the “nonneural epithelial structure” value was “cell masses having a nonneural epithelial structure on the surface were formed”. Also, in experiment [3], the “mesenchymal cell between outer nonneural epithelial tissue and inner neuroepithelial tissue” value was “a mesenchymal cell could not be confirmed”; the “nonneural epithelial structure” value is “a nonneural epithelial structure was formed on the surface of the cell mass”; the “size of cell mass” value is “the formed cell mass was small”.
As for `O=C(Nc1cccc2cccnc12)c1ccc(N2C(=O)[C@@H]3[C@H](C2=O)[C@@H]2C=C[C@H]3C2)cc1` [IWR1-endo], in experiment [1], the “size and condition of cell mass” value is listed as “large cell masses in good condition were formed”; the “nonneural epithelial structure” value is listed as “cell masses having a nonneural epithelial structure on the surface were formed”.
Turning to `COc1ccc(CCC(=O)Nc2nc3ccc(Cl)cc3s2)cc1OC` [KY02111], in experiment [1], the “size and condition of cell mass” value is reported as “large cell masses in good condition were formed”; the “nonneural epithelial structure” value is “cell masses having a nonneural epithelial structure on the surface were formed”.
As to `Cc1cc(-c2ncc(CC(=O)Nc3ccc(-c4cnccn4)cn3)cc2C)ccn1` [LGK974], the “nonneural epithelial structure” value in experiment [1] is recorded as “cell masses having a nonneural epithelial structure on the surface were formed”.
For `NC(=O)c1ccc(-c2nc(-c3ccc4c(c3)OCO4)c(-c3ccccn3)[nH]2)cc1` [SB431542, 4-(5-benzol[1,3]dioxol-5-yl-4-pyridin-2-yl-1H-imidazol-2-yl)-benzamide], in experiment [1] (SB431542 added, no Wnt signal transduction pathway inhibiting substance), the “nonneural epithelial tissue on surface of cell mass” value is on record as “nonneural epithelial tissue was not formed on the surface of the cell masses”. Further, the cell mass formation result in experiment [4] was “larger cell masses containing pituitary tissues were formed”.
With `Oc1nc(-c2ccc(C(F)(F)F)cc2)nc2c1CSCC2` [XAV939], in experiment [1], the “size and condition of cell mass” value is given as “large cell masses in good condition were formed”; the “nonneural epithelial structure” value is “cell masses having a nonneural epithelial structure on the surface were formed”.
